# In patent US10583123B2, “Method for the treatment of ATG4-related disorders” (National Tsing Hua University, priority 2017, dated 2020):
# Tests used:
# HCT116 cells [1] = assay: Caspase-3 activation (Caspase-Glo 3/7, immunoblotting of caspase-3 and PARP); type: cell-based, human; conditions: for caspase-3/7 activity and cleavage of caspase-3 and PARP: cells exposed to Dox (1 μM) alone or co-treated with tioconazole (40 μM)
# Description: The cell lysates were used for immunoblotting with antibodies against the primary antibodies against ATG4B (A2981), LC3 (L7543), and ACTB (β-actin, A5441) (all purchased from Sigma-Aldrich). […] The membrane was scanned and analyzed for the protein expression level with the ChemiDoc XRS Imaging System (Bio-Rad).
# HCT116 cells [2] = assay: FACS cell cycle distribution, subG1 population; conditions: Dox 1 μM, 24 h
# ATG4B [3] = biological target: T1, ATG4B (Homo sapiens, UniProt Q9Y4P1); assay: LC3-PLA2 biochemical ATG4 reporter assay; conditions: FIG. 2 and 4
# T1 sequence (Q9Y4P1 1-393): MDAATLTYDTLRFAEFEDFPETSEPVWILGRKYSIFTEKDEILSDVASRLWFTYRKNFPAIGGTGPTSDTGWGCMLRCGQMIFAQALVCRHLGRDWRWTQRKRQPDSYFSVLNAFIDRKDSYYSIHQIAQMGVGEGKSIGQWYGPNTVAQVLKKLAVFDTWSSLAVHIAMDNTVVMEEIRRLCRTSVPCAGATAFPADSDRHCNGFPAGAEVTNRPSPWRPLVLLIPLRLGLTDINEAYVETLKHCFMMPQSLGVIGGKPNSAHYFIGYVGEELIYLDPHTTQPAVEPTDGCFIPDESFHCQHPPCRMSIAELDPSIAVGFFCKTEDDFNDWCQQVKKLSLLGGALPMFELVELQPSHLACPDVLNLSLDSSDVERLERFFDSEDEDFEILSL
# Excerpt: (§1) Quantitative results are shown in each panel (n=4). […] Bar: 100 μm.
# HCT116 spheroids = conditions: 48 h
# Description: The cells (4000 cells/well) were seeded into an ultra-low attachment, 96-well plate (Costar®, USA) and grown overnight to form spheroid cells. […] The spheroid cells were stained with Calcein AM (1 μM) and Ethidium homodimer-1 (EthD-1, 2 μM) (LIVE/DEAD® Viability/Cytotoxicity Kit, ThermoFisher Scientific) for 30 minutes. The live (green) and dead (red) spheroid cells were imaged via fluorescence microscopy and quantitated using a Fluoroskan Ascent FL reader (Thermo Fisher Scientific) with excitation at 485 nm and emissions at 530 nm and 645 nm for calcein AM and EthD-1, respectively.
# (FIG. 44) HCT116 cells were cultured in an ultra-low attachment dish for 24 h to form spheres. […] Scale bar: 400 μm. (FIG. 45) The relative sphere volume was quantified using DMSO-treated cells as the normalized control. (FIG. 46) HCT116 sphere-forming cells treated as (A) were lysed to measure ATP levels and assess cell viability. […] The viable and dead spheres were imaged with a LIVE/DEAD staining kit. The knockdown efficiency of ATG genes was verified by immunoblotting (left panel) (FIG. 48) The red fluorescence of the spheres in FIG. 47 was quantitated with a reader to assess the dead cell population (n=6).
# ATG4 = ATG4 (Homo sapiens, UniProt Q9Y4P1); conditions: HEK293T cells, FIG. 8
# Description: For the ATG4 cleavable reporter assay in mammalian cells, the N-terminus (NLuc, residues 2-416) and C-terminus (CLuc, residues 398-550) of the luciferase gene were constructed in the expression vector pcDNA3.0. […] The luciferase activity was measured via One-Glo (Promega) according to the instruction manual. The non-cleavable mutant G120A was used to normalize the luminescent signal and determine the ATG4 activity.
# Quantitative results are shown in each panel (n=4). […] (FIG. 7) The expression vector that encoded ATG4-cleavable luciferase was constructed with LC3 and a luciferase chimera gene, as shown in the schematic diagram (upper panel). HEK293T cells were transfected with scramble siRNA (siCtrl) or siRNA against ATG4B (siATG4B) for 48 h, followed by transfection with the ATG4 reporter vector for 24 h. The luciferase activity was measured with a luminescent reader (n=6), and the knockdown efficiency of ATG4B was determined using immunoblotting. […] The cleavage of LC3 and luciferase chimera protein by ATG4 in cells treated with Tc or untreated cells was verified via immunoblotting (upper panel).
# Briefly, LC3 was constructed to split N-terminal and C-terminal luciferase in a mammalian expression vector, as indicated (FIG. 7).
# ATG4B and LC3 complex = ATG4B and LC3 complex (Homo sapiens, UniProt Q9Y4P1); conditions: HEK293T cells, flow cytometry
# Description: The plasmids (1 μg/well) were transfected with lipofectamine 2000 transfection reagent (Life Technologies, 11668-027) into HEK293T cells in a 6-well plate for 24 h. The cells were imaged via fluorescence microscopy or harvested to quantify the fluorescence intensity via a flow cytometer (Becton Dickinson).
# After overnight culture, the cells were fixed to observe Venus complementary under fluorescence microscopy (right panel). […] (FIG. 10) The transfected cells were treated with Tc for 8 h and fixed for flow cytometry to quantify Venus fluorescence using GFP as a counter assay.
# The cells were fixed to determine Venus complementation with flow cytometry and quantitated with FlowJo. HEK 293T cells transfected with or without GFP expression vector were used as the blank and counter controls, respectively.
# ATG4A [4] = biological target: T2, ATG4A (Homo sapiens, UniProt Q8WYN0); assay: biochemical
# T2 sequence (Q8WYN0 whole entry): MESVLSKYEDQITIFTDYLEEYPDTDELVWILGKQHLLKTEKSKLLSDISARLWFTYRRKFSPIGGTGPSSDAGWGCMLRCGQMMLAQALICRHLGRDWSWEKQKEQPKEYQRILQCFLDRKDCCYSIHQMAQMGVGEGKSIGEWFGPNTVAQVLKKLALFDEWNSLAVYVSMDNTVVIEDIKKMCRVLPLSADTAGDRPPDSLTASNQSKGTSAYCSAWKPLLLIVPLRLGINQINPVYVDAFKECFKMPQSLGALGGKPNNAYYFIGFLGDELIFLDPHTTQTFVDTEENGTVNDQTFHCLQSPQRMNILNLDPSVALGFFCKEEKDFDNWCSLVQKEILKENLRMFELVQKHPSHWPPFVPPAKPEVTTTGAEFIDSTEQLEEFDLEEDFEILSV
# Description: (§2) The fluorescence intensity was kinetically monitored for 1 h to determine the ATG4 activity at room temperature with excitation and emission wavelengths of 485 and 530 nm, respectively.
# (§3) For cleavage of GABARAPL2-PLA2 and caspase-3 activation, reaction mixtures or cell lysates were immunoblotted with antibodies against Myc (Roche, 11667149001), caspase-3 (Cell Signaling, 9661), PARP (Cell Signaling, 9532) and GAPDH (Cell Signaling, 5174).
# (§4) (FIG. 5) ATG4B (1 nM) or (FIG. 6) ATG4A (50 nM) was mixed with 10-fold serially diluted Tc and 500 nM GABARAPL2-PLA2 for 1 h. The cleavage of GABARAPL2-PLA2 was validated with immunoblotting using an anti-Myc antibody.
# ATG4B [5] = biological target: T1, ATG4B; assay: biochemical
# Description: as §2, §3, §4
# ATG4B [6] = biological target: T1, ATG4B; assay: ATG4B reporter yeast cell-based assay; conditions: ATG4 reporter yeast cells, FIG. 2
# Description: as §1
# FIGS. 55-58 show the characterization of yeast based ATG4B reporter assay for hts. (FIG. 55) Two-fold serial titrated yeast that harbored the LC3 reporter with wild type ATG4B (WT) or catalytic mutant (C74A) expression vector and reporter vector were seeded into a 384-well plate for 24 or 48 h. The substrate of […] X-gal (80 μg/ml) was included in the SD medium for the colorimetric assay. (FIG. 56) Beta-Glo was added into each well as (A) at 24 or 48 h to optimize the yeast concentration for the luminescent substrate. (FIG. 57) Yeast that harbored the wild type (WT) ATG4B and catalytic mutant (C74A) were used to determine the ratio of signal (WT)/background (C74A) and compare the sensitivity between the colorimetric and luminescent substrates. (FIG. 58) […] of yeast reporter cells (1.5×10^4 cells/ml) as previously described were seeded into a 384-well white plate for 24 h. Ten μl of the luminescent substrate Beta-Glo was added to each well, and the luminescent signal was read to determine the ATG4B activity. The luminescent signal between the wild type (WT) ATG4B and catalytic mutant (C/A) was used to determine the assay robustness (Z′ factor: 0.78).
# ATG4A [7] = biological target: T2, ATG4A; conditions: ATG4A 50 nM, 500 nM GABARAPL2-PLA2, 1 h, anti-Myc
# Description: as §2, §3, §4
# [8] = tested on: H4, HCT116 and MDA-MB-231 cells; assay: Cell viability assay (CellTiter-Glo, cellular impedance); type: cell-based, human
# Description: Cells were seeded into a 384-well plate overnight and treated with various drugs for 24 h. CellTiter-Glo (Promega, Madison, Wis., USA) was subsequently added to the treated cells, and the luminescence was read using a Fluoroskan Ascent FL reader (Thermo Fisher Scientific). Alternatively, the cell viability was monitored with an impedance-based instrument system (iCELLigence, ACEA Biosciences) for live cells. Briefly, H4 cells, HCT116 cells and MDA-MB-23 cells (4×10^4 cells/well) were seeded into electronic plates (E-Plates L8, ACEA Biosciences) with 400 μl of DMEM that contained 10% FBS and incubated for 30 h. […] The cellular impedance was periodically measured every 15 minutes until 80 h.
# The cell viability was accessed with CellTiter-Glo.
# ATG4B [9] = biological target: T1, ATG4B; conditions: ATG4B 1 nM, 500 nM GABARAPL2-PLA2, 1 h, anti-Myc
# Description: as §2, §3, §4
# [10] = tested on: H4 cells that stably express GFP-LC3; conditions: tioconazole 8 h
# Description: The treated cells were fixed to observe the GFP-LC3 puncta via fluorescence microscopy. For protein colocalization, the H4 stable cells previously described were transfected with 1 μg plasmids Cherry tagged ATG4B or Lamp1-RFP (Addgene, 1817) for 36 h using Lipofectamine 2000 (Invitrogen).
# (FIG. 17) Human glioma H4 cells that stably express GFP-LC3 were transfected with 5 nM non-targeting siRNA (Ctrl) or siRNA against ATG4 family members (ATG4) for 48 h, and the knockdown efficiency of ATG4 was verified with real time PCR. (FIG. 18) The knockdowned cells were fixed for observation via fluorescence microscopy, and the number of GFP-LC3 puncta is quantified in the right panel. […] The autophagy inhibitor CQ was used as a positive control. […] Representative autophagic vacuoles (AVs) are shown. […] (FIG. 22) The numbers of AVs for each optical section (9 m^2) are quantified (n=8). (FIG. 23) HCT116 cells expressing GFP-LC3 and RFP-Lamp1 were treated with Tc for 6 h and fixed to observe colocalization of GFP-LC3 and RFP-Lamp1 with confocal microscopy. […] The colocalization coefficients of images were quantified by the Ziess LSM 710 Software and are shown in the right panel. […] Cells were harvested for immunoblotting using antibodies against LC3, ATG4B or ACTB, and autophagy flux was quantified in untreated cells and cells treated with CQ based on changes in LC3-II. […]
# [11] = tested on: HCT116 and H4 cells expressing GFP-LC3 and RFP-Lamp1; conditions: Tc 6 h, confocal microscopy
# Description: Human colorectal cancer HCT116 cells, glioblastoma H4 cells and breast cancer MDA-MB-231 from the ATCC were cultured in Dulbecco's modified Eagle's medium (DMEM) (Invitrogen, 12100-046) supplemented with 10% HyClone fetal bovine serum, penicillin (100 U/ml), and streptomycin (100 mg/ml). […] The treated cells were harvested to determine cell viability, apoptosis and immunoblotting.
# The treated cells were fixed to observe the GFP-LC3 puncta via fluorescence microscopy.
# (FIG. 23) HCT116 cells expressing GFP-LC3 and RFP-Lamp1 were treated with Tc for 6 h and fixed to observe colocalization of GFP-LC3 and RFP-Lamp1 with confocal microscopy. GFP-LC3 that had colocalized with or was surrounded by RFP-Lamp1 was identified as fusion between autophagosomes and lysosomes. The colocalization coefficients of images were quantified by the Ziess LSM 710 Software and are shown in the right panel. Bar: 20 m.
# HCT116 and H4 cells = conditions: Dox-treated cells, Tc 40 μM, JC-1
# Description: For the MMP analysis, the cells were treated with JC-1 (5,5,6,6-tetrachloro-1,1,3,3-tetraethyl-benzimidazolylcarbocyanine iodide, Invitrogen) at 37° C. for 20 min prior to harvesting.
# [12] = tested on: H4, HCT116 or MDA-MB-231 cells
# Description: The cells were briefly rinsed in PBS (Biological Industries, 02-023-1) and lysed with RIPA buffer (1% NP40 [MDBio, 101-9016-45-9], 50 mM Tris HCl, pH 7.5, 150 mM NaCl, 0.25% sodium deoxycholate [Sigma-Aldrich, D6750], 1% sodium dodecyl sulfate [SDS; Calbiochem, 428015], and protease inhibitor cocktail [Roche, 11873580001]). The cell lysates were used for immunoblotting with antibodies against the primary antibodies against ATG4B (A2981), LC3 (L7543), and ACTB (β-actin, A5441) (all purchased from Sigma-Aldrich). The differential accumulations of LC3 in cells with and without CQ were used to quantitate the autophagic flux (Mizushima et al., 2010). […] The proteins were probed with an HRP-labeled secondary antibody (Santa Cruz, sc-2004 or sc-2005) and detected with an ECL reagent. The membrane was scanned and analyzed for the protein expression level with the ChemiDoc XRS Imaging System (Bio-Rad).
# The autophagy inhibitor CQ was used as a positive control. […] (FIG. 24) HCT16 cells were transfected with siRNA (5 nM) for 66 h and then treated with CQ (20 μM) for 2 h. Cells were harvested for immunoblotting using antibodies against LC3, ATG4B or ACTB, and autophagy flux was quantified in untreated cells and cells treated with CQ based on changes in LC3-II. […] (FIG. 26) The autophagic flux was quantified as described in FIG. 25.
# HCT116 cells [13] = conditions: Tc 40 μM, versus untreated cells
# Description: HCT116 cells treated with T2 (40 μM), CQ (20 μM) for 8 h were rinsed with PBS once and fixed in 2% glutaraldehyde at room temperature for 30 min. The cells were harvested to postfix with 1% osmium tetroxide and stained with 2% uranyl acetate (Agar Scientific) at room temperature for 1 h. The cell pellets were embedded to obtain 80 nm sections with a diamond knife. The sections were stained with 2% uranyl acetate and 0.3% lead citrate (Agar Scientific) and imaged with a JEM1400 PLUS transmission electron microscope (JEOL).
# The autophagy inhibitor CQ was used as a positive control. Bar: 20 μm. […] Representative autophagic vacuoles (AVs) are shown. Arrowhead: autophagosome. Bar: 200 nm. (FIG. 22) The numbers of AVs for each optical section (9 m^2) are quantified (n=8).
# [14] = tioconazole-treated mice, immunohistochemistry
# Description for HCT116 xenograft tumors: Human colorectal cancer HCT116 cells (2×10^6) were mixed with Matrigel (1:1) and subcutaneously implanted into six-week old immunodeficient mice (nu/nu, female). […] The tumor size in each mouse was measured every 3 to 4 days with vernier calipers, and the tumor volumes were calculated using the formula (larger diameter)×(smaller diameter)2×7π/6. Tumors were further cut from euthanized mice and embedded in paraffin. […] The protein levels in the tumor sections were determined using the UltraVision™ Quanto Detection System HRP DAB (Thermo Scientific) and observed under microscopy.
# The tumor volume (circle) in each mouse was measured every 3 to 4 days (5 per group). The p values were determined with an ANOVA. […] The quantified results were obtained from at least 1500 cells and are shown in the right panel. p>0.05; *p<0.05; **p<0.01; ***p<0.001.
molecule,measurement,setting,value
"COc1cccc2c1C(=O)c1c(O)c3c(c(O)c1C2=O)C[C@@](O)(C(=O)CO)C[C@@H]3O[C@H]1C[C@H](N)[C@H](O)[C@H](C)O1 [Dox, Doxorubicin]",caspase-3/7 activity and cleavage of caspase-3 and PARP,HCT116 cells [1],significantly elevated
Clc1ccc(COC(Cn2ccnc2)c2ccc(Cl)cc2Cl)c(Cl)c1 (stereo not shown) [miconazole],cell death in combination with Dox (subG1 proportion),HCT116 cells [2],less potently synergized with Dox
same,inhibitory effect on ATG4B compared with tioconazole,ATG4B [3],failed to exhibit as good inhibitory effect on ATG4B as tioconazole
Clc1ccc(C(Cn2ccnc2)OCc2ccsc2Cl)c(Cl)c1 (stereo not shown) [tioconazole],size of tumor spheroids,"HCT116 spheroids; HCT116 spheroids, Tc 40 μM",significantly decreased the size of tumor spheroids
same,"cytotoxicity of Dox in spheroids (ATP levels, number of dead cells)",HCT116 spheroids; Tc 40 μM with Dox 1 μM,enhanced the cytotoxicity of Dox
same,Dox-induced cell death in spheres with scramble shRNA and shRNA against ATG4B,"HCT116 spheroids; Tc 40 μM, Dox 1 μM, LIVE/DEAD staining",enhanced Dox-induced cell death
same,luciferase activity in ATG4 reporter cells,ATG4,increased the luciferase activity
same,cleavage of chimera luciferase in reporter cells,ATG4; immunoblotting,attenuated the cleavage of chimera luciferase
same,fluorescence from formation of the ATG4B and LC3 complex (BiFC),ATG4B and LC3 complex; Tc 8 h,reduced the fluorescence
same,GFP fluorescence (counter assay),ATG4B and LC3 complex,did not affect GFP fluorescence
same,IC50,ATG4A [4],1.3 ± 0.18 µM
same,cell death in combination with Dox (subG1 proportion),HCT116 cells [2],synergistically increased cell death
same,IC50,ATG4B [5],1.8 ± 0.16 µM
same,inhibition in the yeast cell-based assay,ATG4B [6],strong inhibition
same,xenograft tumor weight,"HCT116 xenograft tumors; Tc 60 mg/kg intraperitoneal every other day, day 21",reduced the xenograft tumor weight
same,sensitivity of xenograft tumors to Dox,HCT116 xenograft tumors; Tc 60 mg/kg with Dox 1 mg/kg intraperitoneal every other day,sensitized xenograft tumors to Dox
same,levels of cleaved caspase-3 in tumor tissues,HCT116 xenograft tumors; [14],significantly increased
same,number of LC3 puncta in tumor tissues,HCT116 xenograft tumors; [14],significantly increased
same,cleavage of GABARAPL2-PLA2 by ATG4A (immunoblotting),ATG4A [7],blocked the cleavage
same,cytotoxic effects of starvation and chemotherapy,"[8]; cancer cell lines, tioconazole 40 μM combined with starvation or chemotherapeutic drugs",enhanced the cytotoxic effects of starvation and chemotherapy
same,cell viability,"[8]; cancer cell lines, tioconazole 40 μM, cellular ATP levels or impedance",significantly reduced the cell viability
same,caspase-3/7 activity and cleavage of caspase-3 and PARP,HCT116 cells [1],significantly elevated
same,cleavage of GABARAPL2-PLA2 by ATG4B (immunoblotting),ATG4B [9],blocked the cleavage
same,GFP-LC3-II puncta,[10],accumulation of GFP-LC3-II puncta
same,co-localization of LC3 and LAMP1,[11],decreased the co-localization of LC3 and LAMP1
same,mitochondrial membrane potential (MMP),HCT116 and H4 cells,reduction of mitochondrial membrane potential
same,autophagic flux (LC3-II accumulation with and without CQ),"[12]; Tc 6 h, with or without CQ 20 μM",significantly attenuated autophagic flux
same,LC3-II turnover and SQSTM1 degradation triggered by starvation and chemotherapeutic drugs,"[12]; cancer cells, starvation or CPT/Dox 24 h, immunoblotting",blocked LC3-II turnover and SQSTM1 degradation
same,number of autophagosomes (TEM),HCT116 cells [13],increased
z-VAD-fmk,apoptotic effects of tioconazole and Dox after pretreatment (cell viability),"[8]; zVAD-FMK 50 μM pretreatment, Tc 40 μM, Dox 1 μM 24 h",rescued the apoptotic effects
same,caspase-3 activation after pretreatment,"HCT116 cells [1]; zVAD-FMK 50 μM, cells treated with tioconazole and Dox",blocked caspase-3 activation
